According to patent US9045491B2, “Thienyl [3,2-D] pyrimidin-4-one compounds, preparation method, pharmaceutical compositions and use thereof” (SHANGHAI INSTITUTE OF MATERIA MEDICA, CHINESE ACADEMY OF …, priority 2011, dated 2015):

Experiments:
[1] = Safety evaluation: single dose 100 mg/kg by gavage, one week observation; format: in vivo, ICR mouse
Procedure: After grouping, each compound was administrated once through gavage according to the dose of 100 mg/kg at the same time.

normal ICR mouse = test: Oral glucose tolerance test (OGTT), acute hypoglycemic effect of single oral dose; format: in vivo
Procedure: Acute hypoglycemic effect of single dose through mouth on the normal ICR mouse
Animal: ICR mouse (8-10 weeks old, sex: male, weight: 25-30 g, purchased from Shanghai SLAC Laboratory Animal Center).
1. Two days before the experiment, the food consumption was recorded and the daily food consumption of each animal was calculated;
2. The animals fasted overnight (⅓ of daily food consumption was provided, about 2 g);
3. The blood glucose was measured on the second day.
4. The medicament was administrated through gavage (1 mouse/min). After 6 hours, the blood glucose was measured. Glucose was administrated through gavage according to the body weight (2.5 g/kg). The blood glucose value was monitored at 30 min, 60 min, 90 min, and 120 min after administration.

[2] = normal ICR mouse, 100 mg/kg single dose, 7th day
[3] = normal ICR mouse, 100 mg/kg single dose, 1 d after administration
[4] = normal ICR mouse, 100 mg/kg single dose, 2 d after administration
[5] = normal ICR mouse, 100 mg/kg single dose, 3 d after administration
[6] = normal ICR mouse, 100 mg/kg single dose, 4 d after administration
[7] = normal ICR mouse, 100 mg/kg single dose, 5 d after administration
[8] = normal ICR mouse, 100 mg/kg single dose, 6 d after administration
[9] = normal ICR mouse, 100 mg/kg single dose, 7 d after administration
[10] = normal ICR mouse, 100 mg/kg single dose, before administration

For `COC(=O)c1cc2nc(N3CCCC(N)C3)n(Cc3ccccc3C#N)c(=O)c2s1` (stereo not drawn) [DC291407], which “effect on body weight (conclusion)” value ([1]; ICR mouse, 100 mg/kg single dose) is on record?
The value was “possibly had no effect on body weight”.

What about the acute toxicity ([1]; ICR mouse, 100 mg/kg single dose by gavage, one week) of the same molecule?
Its acute toxicity is “did not reflect obvious acute toxicity”.

What about the “body weight versus normal control group (statistics)” value ([1]; ICR mouse, 100 mg/kg single dose, from second day to 7 days, 100 mg/kg) of the same molecule?
Its value is “significant statistical difference”.

What about the “kidney index versus normal control group (in words)” value ([1]; ICR mouse, 100 mg/kg, 7th day after administration) of the same molecule?
Its value is “did not significantly differ”.

What about the “spleen index versus normal control group (in words)” value ([1]; ICR mouse, 100 mg/kg, 7th day after administration, 100 mg/kg) of the same molecule?
Its value is “significantly increased”.

And the “spleen index versus normal control group (in words)” value ([1]; ICR mouse, 100 mg/kg, 7th day after administration, listed as DC29147, 100 mg/kg)?
Its value is “statistical difference”.

And the Kidney index [1, 2]?
Its Kidney index is 1.5 ± 0.2%.

And the Liver index [1, 2]?
Its Liver index is 5.3 ± 0.4%.

And the Spleen index [1, 2]?
The Spleen index was 0.4 ± 0.0 %.

What about the body weight [1, 3] of the same molecule?
Its body weight is 30.0 ± 1.6 g.

And the food consumption [1, 3]?
The food consumption was 18.4 g · day^−1 · cage^−1.

And the body weight [1, 4]?
The body weight was 30.0 ± 1.7 g.

And the food consumption [1, 4]?
The food consumption was 18.5 g · day^−1 · cage^−1.

And the body weight [1, 5]?
Its body weight is 29.7 ± 1.9 g.

And the food consumption [1, 5]?
The food consumption was 19.0 g · day^−1 · cage^−1.

What about the body weight [1, 6] of the same molecule?
The body weight was 30.0 ± 1.5 g.

And the food consumption [1, 6]?
Its food consumption is 19.4 g · day^−1 · cage^−1.

And the body weight [1, 7]?
The body weight was 30.5 ± 1.5 g.

What about the food consumption [1, 7] of the same molecule?
Its food consumption is 22.3 g · day^−1 · cage^−1.

And the body weight [1, 8]?
Its body weight is 30.4 ± 1.8 g.

And the food consumption [1, 8]?
The food consumption was 22.6 g · day^−1 · cage^−1.

And the body weight [1, 9]?
The body weight was 30.6 ± 1.9 g.

What about the food consumption [1, 9] of the same molecule?
The food consumption was 23.5 g · day^−1 · cage^−1.

What about the body weight [1, 10] of the same molecule?
Its body weight is 29.7 ± 1.8 g.

And the food consumption [1, 10]?
Its food consumption is 21.4 g · day^−1 · cage^−1.

What about the “hypoglycemic ability in vivo, oral glucose tolerance test after multiple single-dose administration” value (normal ICR mouse; single administration at multiple doses, FIGS. 11-12) of the same molecule?
Its value is “comparable to that of Alogliptin”.

What about the “hypoglycemic ability in vivo, oral glucose tolerance test” value (normal ICR mouse; single dose 3 mg/kg by gavage, glucose 2.5 g/kg after 6 hours, FIGS. 7-10) of the same molecule?
The value was “comparable to that of Alogliptin”.
